Laboratory results: US6706663B2, “Herbicidal 3-heterocyclic substituted benzisothiazole and benzisoxazole compounds” (Wyeth, priority 2000, dated 2004)

Tests used:
[1] = system: IPOHE (Ipomoea hederacea); test: Postemergence herbicidal evaluation; assay type: in vivo, (L.) Jacq.
Method in brief: (§1)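 Seedlings grown about two weeks in flats, sprayed, then kept under standard greenhouse care. Rated visually 4–5 weeks after treatment on a 0–9 scale (stand, vigour, malformation, size, chlorosis, overall appearance) relative to untreated control; repeat tests averaged.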

[2] = system: ECHCG (Echinochloa crus-galli); test: Postemergence herbicidal evaluation; assay type: in vivo, (L.) Beau
Method in brief: as §1

SETVI (Setaria viridis) [3] = test: Postemergence herbicidal evaluation; assay type: in vivo, (L.) Beau
Method in brief: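 First, seedlings are raised in flats for about two weeks. Next, compound dispersed in 50/50 acetone/water with 0.5% TWEEN 20 is sprayed at 40 psi to deliver about 0.0040–1.000 kg/ha. Plants are then maintained in the greenhouse and rated 0-9 after four to five weeks.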

[4] = system: GLXMAW (Soybean, Williams); test: Postemergence herbicidal evaluation; assay type: in vivo, Glycine max, (L.) Merr. cv Williams
Method in brief: as §1

ORYSAT (Rice, Tebonnet) [5] = test: Postemergence herbicidal evaluation; assay type: in vivo, Oryza sativa, (L.) Tebonnet
Method in brief: as §1

[6] = system: TRZAWR (Wheat, Winter, cv Riband); test: Postemergence herbicidal evaluation; assay type: in vivo, Triticum aestivum
Method in brief: as §1

ZEAMX (Corn, Field) = test: Postemergence herbicidal evaluation; assay type: in vivo, Zea mays, L.
Method in brief: as §1

[7] = system: ABUTH (Abutilon theophrasti); test: Preemergence herbicidal evaluation; assay type: in vivo, Medic.; details: rated 4-5 weeks after treatment
[8] = system: AMBEL (Ambrosia artemisifolia); test: Preemergence herbicidal evaluation; assay type: in vivo, L.; details: rated 4-5 weeks after treatment
Method in brief: (§2)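 Scores (0–9) reflect visual comparison with control plants for stand, vigor, malformation, size and chlorosis. Seeds in potting soil received a post-planting spray of compound in aqueous acetone and grew in a greenhouse until assessment 4–5 weeks later.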

[9] = system: CASOB (Cassia obtusifolia); test: Preemergence herbicidal evaluation; assay type: in vivo, L.; details: rated 4-5 weeks after treatment
Method in brief: as §2

[10] = system: CHEAL (Chenopodium album); test: Preemergence herbicidal evaluation; assay type: in vivo, L.; details: rated 4-5 weeks after treatment
Method in brief: as §2

[11] = system: ECHCG (Echinochloa crus-galli); test: Preemergence herbicidal evaluation; assay type: in vivo, (L.) Beau; details: rated 4-5 weeks after treatment
Method in brief: as §2

SETVI (Setaria viridis) [12] = test: Preemergence herbicidal evaluation; assay type: in vivo, (L.) Beau; details: rated 4-5 weeks after treatment
Method in brief: as §2

ORYSAT (Rice, Tebonnet) [13] = test: Preemergence herbicidal evaluation; assay type: in vivo, Oryza sativa, (L.) Tebonnet; details: rated 4-5 weeks after treatment
[14] = system: TRZAWR (Wheat, Winter, cv Riband); test: Preemergence herbicidal evaluation; assay type: in vivo, Triticum aestivum; details: rated 4-5 weeks after treatment
Method in brief: as §2

[15] = system: ECHORC (Echinochloa oryzoides); test: Flooded paddy, preemergence weed control; assay type: in vivo, Echinochloa oryzoides (Ard.) Fritsch.; details: rated 3-4 weeks after treatment, 0-9 rating scale
Method in brief: (§3)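 Ratings of 0-9 reflect visual comparison with a control for stand, vigor, deformity, size, chlorosis and overall look. Propagules were placed in shallow silt loam (top 0.5 cm) under a continuous 1.5–3 cm flood and grown in the greenhouse.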

[16] = system: CYPSE (Cyperus serotinus); test: Flooded paddy, preemergence weed control; assay type: in vivo, Rottb.; details: rated 3-4 weeks after treatment, 0-9 rating scale
Method in brief: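 Seeds or propagules were planted 0.5 cm deep in silt loam and flooded to 1.5–3 cm. Compounds in 50/50 v/v aqueous/acetone were pipetted into the flood water at about 0.0080 to 0.1250 kg/ha. After 3–4 weeks in the greenhouse, effect was rated visually on a 0–9 scale versus untreated control.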

[17] = system: MOOVA (Monochoria vaginalis); test: Flooded paddy, preemergence weed control; assay type: in vivo, Presl.; details: rated 3-4 weeks after treatment, 0-9 rating scale
Method in brief: as §3

## C[C@@H]1OC(c2nsc3ccc(-n4c(=O)cc(C(F)(F)F)n(C)c4=O)cc23)O[C@@H]1C (stereo partly drawn) [Compound 47, 3-[3-[(4R,5S)-4,5-dimethyl-1,3-dioxolan-2-yl]-1,2-benzisothiazol-5-yl]-1-methyl-6-(trifluoromethyl)uracil]
[1]; rate 0.0320 kg/ha
  Postemergence herbicidal rating, IPOHE: 9.0
[1]; rate 0.0620 kg/ha
  Postemergence herbicidal rating, IPOHE: 9.0
[2]; rate 0.0320 kg/ha
  Postemergence herbicidal rating, ECHCG: 0.0
[2]; rate 0.0620 kg/ha
  Postemergence herbicidal rating, ECHCG: 3.0
SETVI (Setaria viridis) [3]; rate 0.0320 kg/ha
  Postemergence herbicidal rating, SETVI: 9.0
SETVI (Setaria viridis) [3]; rate 0.0620 kg/ha
  Postemergence herbicidal rating, SETVI: 9.0
[4]; rate 0.0320 kg/ha
  Postemergence herbicidal rating, GLXMAW: 7.5
[4]; rate 0.0620 kg/ha
  Postemergence herbicidal rating, GLXMAW: 8.5
ORYSAT (Rice, Tebonnet) [5]; rate 0.0320 kg/ha
  Postemergence herbicidal rating, ORYSAT: 4.0
ORYSAT (Rice, Tebonnet) [5]; rate 0.0620 kg/ha
  Postemergence herbicidal rating, ORYSAT: 6.5
[6]; rate 0.0320 kg/ha
  Postemergence herbicidal rating, TRZAWR: 5.0
[6]; rate 0.0620 kg/ha
  Postemergence herbicidal rating, TRZAWR: 6.0
ZEAMX (Corn, Field); rate 0.0320 kg/ha
  Postemergence herbicidal rating, ZEAMX: 3.5
ZEAMX (Corn, Field); rate 0.0620 kg/ha
  Postemergence herbicidal rating, ZEAMX: 4.0
[7]; Rate 0.0620 kg/ha
  Preemergence herbicidal rating ABUTH: 9.0
[7]; Rate 0.1250 kg/ha
  Preemergence herbicidal rating ABUTH: 9.0
[7]; Rate 0.2500 kg/ha
  Preemergence herbicidal rating ABUTH: 9.0
[8]; Rate 0.0620 kg/ha
  Preemergence herbicidal rating AMBEL: 9.0
[8]; Rate 0.1250 kg/ha
  Preemergence herbicidal rating AMBEL: 9.0
[8]; Rate 0.2500 kg/ha
  Preemergence herbicidal rating AMBEL: 9.0
[9]; Rate 0.0620 kg/ha
  Preemergence herbicidal rating CASOB: 4.5
[9]; Rate 0.1250 kg/ha
  Preemergence herbicidal rating CASOB: 7.5
[9]; Rate 0.2500 kg/ha
  Preemergence herbicidal rating CASOB: 9.0
[10]; Rate 0.0620 kg/ha
  Preemergence herbicidal rating CHEAL: 9.0
[10]; Rate 0.1250 kg/ha
  Preemergence herbicidal rating CHEAL: 9.0
[10]; Rate 0.2500 kg/ha
  Preemergence herbicidal rating CHEAL: 9.0
[11]; Rate 0.0620 kg/ha
  Preemergence herbicidal rating ECHCG: 9.0
[11]; Rate 0.1250 kg/ha
  Preemergence herbicidal rating ECHCG: 9.0
[11]; Rate 0.2500 kg/ha
  Preemergence herbicidal rating ECHCG: 9.0
SETVI (Setaria viridis) [12]; Rate 0.0620 kg/ha
  Preemergence herbicidal rating SETVI: 9.0
SETVI (Setaria viridis) [12]; Rate 0.1250 kg/ha
  Preemergence herbicidal rating SETVI: 8.5
SETVI (Setaria viridis) [12]; Rate 0.2500 kg/ha
  Preemergence herbicidal rating SETVI: 9.0
ORYSAT (Rice, Tebonnet) [13]; Rate 0.0620 kg/ha
  Preemergence herbicidal rating ORYSAT: 7.5
ORYSAT (Rice, Tebonnet) [13]; Rate 0.1250 kg/ha
  Preemergence herbicidal rating ORYSAT: 7.5
ORYSAT (Rice, Tebonnet) [13]; Rate 0.2500 kg/ha
  Preemergence herbicidal rating ORYSAT: 9.0
[14]; Rate 0.0620 kg/ha
  Preemergence herbicidal rating TRZAWR: 6.0
[14]; Rate 0.1250 kg/ha
  Preemergence herbicidal rating TRZAWR: 8.0
[14]; Rate 0.2500 kg/ha
  Preemergence herbicidal rating TRZAWR: 8.0
[15]; rate 0.0080 kg/ha
  herbicidal rating, ECHORC: 5.0
[15]; rate 0.0320 kg/ha
  herbicidal rating, ECHORC: 8.5
[15]; rate 0.1250 kg/ha
  herbicidal rating, ECHORC: 9.0
[16]; rate 0.0320 kg/ha
  herbicidal rating, CYPSE: 9.0
[16]; rate 0.1250 kg/ha
  herbicidal rating, CYPSE: 9.0
[17]; rate 0.0320 kg/ha
  herbicidal rating, MOOVA: 9.0
[17]; rate 0.1250 kg/ha
  herbicidal rating, MOOVA: 9.0

## C[C@H]1OC(c2nsc3ccc(-n4c(=O)cc(C(F)(F)F)n(C)c4=O)cc23)O[C@@H]1C [Compound 48, 3-[3-[(4R,5R)-4,5-dimethyl-1,3-dioxolan-2-yl]-1,2-benzisothiazol-5-yl]-1-methyl-6-(trifluoromethyl)uracil]
[1]; rate 0.0320 kg/ha
  Postemergence herbicidal rating, IPOHE: 9.0
[1]; rate 0.0620 kg/ha
  Postemergence herbicidal rating, IPOHE: 9.0
[2]; rate 0.0320 kg/ha
  Postemergence herbicidal rating, ECHCG: 5.0
[2]; rate 0.0620 kg/ha
  Postemergence herbicidal rating, ECHCG: 3.0
SETVI (Setaria viridis) [3]; rate 0.0320 kg/ha
  Postemergence herbicidal rating, SETVI: 9.0
SETVI (Setaria viridis) [3]; rate 0.0620 kg/ha
  Postemergence herbicidal rating, SETVI: 9.0
[4]; rate 0.0320 kg/ha
  Postemergence herbicidal rating, GLXMAW: 8.0
[4]; rate 0.0620 kg/ha
  Postemergence herbicidal rating, GLXMAW: 8.7
ORYSAT (Rice, Tebonnet) [5]; rate 0.0320 kg/ha
  Postemergence herbicidal rating, ORYSAT: 5.5
ORYSAT (Rice, Tebonnet) [5]; rate 0.0620 kg/ha
  Postemergence herbicidal rating, ORYSAT: 6.0
[6]; rate 0.0320 kg/ha
  Postemergence herbicidal rating, TRZAWR: 5.0
[6]; rate 0.0620 kg/ha
  Postemergence herbicidal rating, TRZAWR: 5.7
ZEAMX (Corn, Field); rate 0.0320 kg/ha
  Postemergence herbicidal rating, ZEAMX: 4.5
ZEAMX (Corn, Field); rate 0.0620 kg/ha
  Postemergence herbicidal rating, ZEAMX: 5.7
[7]; Rate 0.0620 kg/ha
  Preemergence herbicidal rating ABUTH: 9.0
[7]; Rate 0.1250 kg/ha
  Preemergence herbicidal rating ABUTH: 9.0
[7]; Rate 0.2500 kg/ha
  Preemergence herbicidal rating ABUTH: 9.0
[8]; Rate 0.0620 kg/ha
  Preemergence herbicidal rating AMBEL: 9.0
[8]; Rate 0.1250 kg/ha
  Preemergence herbicidal rating AMBEL: 9.0
[8]; Rate 0.2500 kg/ha
  Preemergence herbicidal rating AMBEL: 9.0
[9]; Rate 0.0620 kg/ha
  Preemergence herbicidal rating CASOB: 5.0
[9]; Rate 0.1250 kg/ha
  Preemergence herbicidal rating CASOB: 7.5
[9]; Rate 0.2500 kg/ha
  Preemergence herbicidal rating CASOB: 9.0
[10]; Rate 0.0620 kg/ha
  Preemergence herbicidal rating CHEAL: 9.0
[10]; Rate 0.1250 kg/ha
  Preemergence herbicidal rating CHEAL: 9.0
[10]; Rate 0.2500 kg/ha
  Preemergence herbicidal rating CHEAL: 9.0
[11]; Rate 0.0620 kg/ha
  Preemergence herbicidal rating ECHCG: 9.0
[11]; Rate 0.1250 kg/ha
  Preemergence herbicidal rating ECHCG: 9.0
[11]; Rate 0.2500 kg/ha
  Preemergence herbicidal rating ECHCG: 9.0
SETVI (Setaria viridis) [12]; Rate 0.0620 kg/ha
  Preemergence herbicidal rating SETVI: 9.0
SETVI (Setaria viridis) [12]; Rate 0.1250 kg/ha
  Preemergence herbicidal rating SETVI: 9.0
SETVI (Setaria viridis) [12]; Rate 0.2500 kg/ha
  Preemergence herbicidal rating SETVI: 9.0
ORYSAT (Rice, Tebonnet) [13]; Rate 0.0620 kg/ha
  Preemergence herbicidal rating ORYSAT: 7.5
ORYSAT (Rice, Tebonnet) [13]; Rate 0.1250 kg/ha
  Preemergence herbicidal rating ORYSAT: 8.0
ORYSAT (Rice, Tebonnet) [13]; Rate 0.2500 kg/ha
  Preemergence herbicidal rating ORYSAT: 9.0
[14]; Rate 0.0620 kg/ha
  Preemergence herbicidal rating TRZAWR: 6.0
[14]; Rate 0.1250 kg/ha
  Preemergence herbicidal rating TRZAWR: 8.0
[14]; Rate 0.2500 kg/ha
  Preemergence herbicidal rating TRZAWR: 8.0
[15]; rate 0.0080 kg/ha
  herbicidal rating, ECHORC: 8.0
[15]; rate 0.0320 kg/ha
  herbicidal rating, ECHORC: 9.0
[15]; rate 0.1250 kg/ha
  herbicidal rating, ECHORC: 9.0
[16]; rate 0.0320 kg/ha
  herbicidal rating, CYPSE: 9.0
[16]; rate 0.1250 kg/ha
  herbicidal rating, CYPSE: 9.0
[17]; rate 0.0320 kg/ha
  herbicidal rating, MOOVA: 9.0
[17]; rate 0.1250 kg/ha
  herbicidal rating, MOOVA: 9.0
